Test: xn = mol fraction of the nth substance listed
Details: 101 kPa

CC[n+]1ccn(C)c1.N#C[N-]C#N + CCO + O
viscosity [mPa·s]
Details	298.15 K	313.15 K	328.15 K	343.15 K
x2 = 0.0957, x3 = 0.7595	3.15	2.21	–	–
x2 = 0.1156, x3 = 0.8359	2.25	1.52	–	–
x2 = 0.1191, x3 = 0.3486	6.67	4.77	3.64	2.85
x2 = 0.2007, x3 = 0.7083	2.87	2	1.42	1.08
x2 = 0.2484, x3 = 0.6015	3.39	2.36	1.74	1.34
x2 = 0.2507, x3 = 0.6986	2.65	1.76	1.25	0.94
x2 = 0.2881, x3 = 0.404	4.63	3.33	2.52	2.02
x2 = 0.379, x3 = 0.1385	5.89	4.31	3.3	2.63
x2 = 0.4202, x3 = 0.3032	4	2.92	2.23	1.77
x2 = 0.4889, x3 = 0.4093	2.77	1.95	–	–
x2 = 0.6949, x3 = 0.2046	2.27	–	–	–

O=C([O-])[O-].[Na+].[Na+] + CCCCCCCCCCCC[N+](C)(C)C.[Br-] + O
298.15 K
Details	electrical conductivity [S/m]
x1 = 0.0001801, x2 = 7.809e-05	0.2221
x1 = 0.0001801, x2 = 8.963e-05	0.2267
x1 = 0.0001801, x2 = 0.000101	0.2313
x1 = 0.0001801, x2 = 0.0001125	0.2359
x1 = 0.0001801, x2 = 0.0001241	0.2404
x1 = 0.0001801, x2 = 0.0001356	0.2449
x1 = 0.0001801, x2 = 0.0001466	0.2493
x1 = 0.0001801, x2 = 0.000158	0.2537
x1 = 0.0001801, x2 = 0.000169	0.2579
x1 = 0.0001801, x2 = 0.00018	0.2622
x1 = 0.0001801, x2 = 0.0001908	0.2663
x1 = 0.0001801, x2 = 0.0002018	0.2705
x1 = 0.0001801, x2 = 0.0002126	0.2745
x1 = 0.0001801, x2 = 0.0002234	0.278
x1 = 0.0001801, x2 = 0.000234	0.2806
x1 = 0.0001801, x2 = 0.0002447	0.2825
x1 = 0.0001801, x2 = 0.0002551	0.2841
x1 = 0.0001801, x2 = 0.0002658	0.2855
x1 = 0.0001801, x2 = 0.0002762	0.2868
x1 = 0.0001801, x2 = 0.0002867	0.288
x1 = 0.0001801, x2 = 0.0002986	0.2893
x1 = 0.0001801, x2 = 0.0003116	0.2908
x1 = 0.0001801, x2 = 0.000342	0.2939
x1 = 0.0001802, x2 = 0	0.1927
x1 = 0.0001802, x2 = 2.16e-06	0.1931
x1 = 0.0001802, x2 = 4.51e-06	0.1938
x1 = 0.0001802, x2 = 7.94e-06	0.1951
x1 = 0.0001802, x2 = 1.154e-05	0.1963
x1 = 0.0001802, x2 = 1.659e-05	0.1981
x1 = 0.0001802, x2 = 2.309e-05	0.2004
x1 = 0.0001802, x2 = 3.174e-05	0.2037
x1 = 0.0001802, x2 = 4.31e-05	0.2082
x1 = 0.0001802, x2 = 5.483e-05	0.2128
x1 = 0.0001802, x2 = 6.655e-05	0.2175
x1 = 0.001798, x2 = 0.0001498	1.359
x1 = 0.001798, x2 = 0.0001618	1.363
x1 = 0.001798, x2 = 0.0001776	1.367
x1 = 0.001798, x2 = 0.0001934	1.371
x1 = 0.001798, x2 = 0.000209	1.374
x1 = 0.001798, x2 = 0.0002246	1.377
x1 = 0.001798, x2 = 0.0002401	1.38
x1 = 0.001798, x2 = 0.0002555	1.383
x1 = 0.001798, x2 = 0.0002702	1.386
x1 = 0.001798, x2 = 0.0002851	1.389
x1 = 0.001798, x2 = 0.0003037	1.393
x1 = 0.001798, x2 = 0.0003216	1.396
x1 = 0.001798, x2 = 0.0003394	1.399
x1 = 0.001798, x2 = 0.0003576	1.402
x1 = 0.001798, x2 = 0.0003752	1.405
x1 = 0.001798, x2 = 0.0003925	1.408
x1 = 0.001799, x2 = 0	1.335
x1 = 0.001799, x2 = 8.18e-06	1.333
x1 = 0.001799, x2 = 1.563e-05	1.333
x1 = 0.001799, x2 = 2.381e-05	1.333
x1 = 0.001799, x2 = 3.217e-05	1.333
x1 = 0.001799, x2 = 4.072e-05	1.334
x1 = 0.001799, x2 = 5.126e-05	1.335
x1 = 0.001799, x2 = 6.398e-05	1.338
x1 = 0.001799, x2 = 7.671e-05	1.34
x1 = 0.001799, x2 = 8.888e-05	1.343
x1 = 0.001799, x2 = 0.0001014	1.346
x1 = 0.001799, x2 = 0.0001138	1.349
x1 = 0.001799, x2 = 0.000126	1.352
x1 = 0.001799, x2 = 0.0001379	1.355
